Measured values: patent US20260102501A1, “ANTI-CANCER NUCLEAR HORMONE RECEPTOR-TARGETING COMPOUNDS” (Nuvation Bio Inc., priority 2022, published 2026)
pIC50: −log10 of the molar value. Where two headings read alike, the source gives them in different places.

Assays:
LNCap cells = experiment: Cell viability assay (CellTiterGlo); assay type: cell-based; details: Homo sapiens, 144 h; for IC50: read-out: LNCap (IC50, nM); for pIC50: 6 days incubation, CellTiterGlo, read-out: LNCap (IC50)
22Rv1 cells = experiment: Cell viability assay (CellTiterGlo); details: Homo sapiens, 22Rv1, 144 h, read-out: 22RV1 (IC50, nM)
Method: Cell viability assay: LNCap, 22Rv1, MCF7, MDAMB361, T47D, and IEC6 cells were seeded at a density of 500-2000 cells/well in 96 well plates, and a ‘T0’ (timepoint 0) was included along with the assay plate. The plates were then incubated at 37° C., 5% CO2 in a cell culture incubator overnight. On the next day, the ‘T0’ plate was assayed using CellTiterGlo (Promega, Inc) according to the manufacturer's instructions. The appropriate compounds were diluted in DMSO and added to the assay plate (final DMSO concentration of 0.1-0.2%) on the next day. The assay plates were incubated for 6 days at 37° C., 5% CO2. After the incubation period, the plates were assayed using CellTiterGlo (Promega, Inc) according to the manufacturer's instructions and luminescence was read on the En Vision plate reader. […] GraphPadPrism was used to analyze the data and determine GI50/IC50 values.

[1] = molecular target: T1, AR (cytosol from LnCaP cells) (Homo sapiens, UniProt P10275, T878A); experiment: AR binding assay (3H-R1881 displacement)
T1 sequence (P10275 1-920 T878A): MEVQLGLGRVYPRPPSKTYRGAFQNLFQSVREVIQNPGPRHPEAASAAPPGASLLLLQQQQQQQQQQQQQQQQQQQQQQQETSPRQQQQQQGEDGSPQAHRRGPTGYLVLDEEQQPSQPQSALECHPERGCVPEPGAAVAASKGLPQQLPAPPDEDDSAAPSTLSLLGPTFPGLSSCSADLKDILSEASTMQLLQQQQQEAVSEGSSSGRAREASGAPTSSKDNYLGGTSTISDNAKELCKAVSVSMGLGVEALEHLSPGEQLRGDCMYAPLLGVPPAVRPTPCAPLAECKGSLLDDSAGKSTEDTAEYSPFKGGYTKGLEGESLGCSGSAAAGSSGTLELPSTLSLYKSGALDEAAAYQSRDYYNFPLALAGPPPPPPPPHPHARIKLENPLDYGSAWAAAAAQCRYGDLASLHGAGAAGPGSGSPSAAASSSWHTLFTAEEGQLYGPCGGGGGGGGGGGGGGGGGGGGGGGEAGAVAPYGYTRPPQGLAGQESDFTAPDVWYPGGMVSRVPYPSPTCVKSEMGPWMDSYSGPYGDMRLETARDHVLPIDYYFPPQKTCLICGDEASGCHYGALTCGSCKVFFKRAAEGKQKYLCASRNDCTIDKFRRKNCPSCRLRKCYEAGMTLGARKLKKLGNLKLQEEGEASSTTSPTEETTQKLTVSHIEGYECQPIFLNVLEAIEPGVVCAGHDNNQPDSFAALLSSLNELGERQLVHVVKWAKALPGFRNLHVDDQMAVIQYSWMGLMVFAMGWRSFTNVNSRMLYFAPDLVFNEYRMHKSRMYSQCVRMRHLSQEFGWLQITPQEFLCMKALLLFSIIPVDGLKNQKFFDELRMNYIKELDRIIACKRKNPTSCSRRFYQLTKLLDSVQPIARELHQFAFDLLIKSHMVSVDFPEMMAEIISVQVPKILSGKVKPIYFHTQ
Method: The plate was then centrifuged at 3000 rpm for 30 minutes at 4° C.

IEC6 cells = experiment: Cell viability assay (CellTiterGlo); details: Rattus norvegicus, IEC-6, 144 h, read-out: IEC-6 (IC50, nM)

Question: Which results are given for `CC[C@@]1(O)C(=O)OCc2c1cc1n(c2=O)Cc2cc3c(CN4CCN(C(=O)C5CCN(c6ccc(C(=O)N[C@H]7CC[C@H](Oc8ccc(C#N)c(Cl)c8)CC7)nn6)CC5)CC4)c(OC(=O)N(C)c4ccccc4)ccc3nc2-1` [Compound 2, (S)-10-((4-(1-(6-(((1r,4r)-4-(3-Chloro-4-cyanophenoxy)cyclohexyl)carbamoyl)pyridazin-3-yl)piperidine-4-carbonyl)piperazin-1-yl)methyl)-4-ethyl-4-hydroxy-3,14-dioxo-3,4,12,14-tetrahydro-1H-pyrano[3′,4′:6,7]indolizino[1,2-b]quinolin-9-yl Methyl(phenyl)carbamate]?
Answer: IC50 (LNCap cells): > 1000 nM; IC50 (22Rv1 cells): > 1000 nM; pIC50 [1]: 6.00 to 7.00

Question: With `CC[C@@]1(O)C(=O)OCc2c1cc1n(c2=O)Cc2cc3c(CN4CCN(C(=O)C5CCN(c6ccc(C(=O)N[C@H]7CC[C@H](N(C)c8ccc(C#N)c(Cl)c8)CC7)nn6)CC5)CC4)c(O)ccc3nc2-1` [Compound No. 15, N-((1r,4r)-4-((3-Chloro-4-cyanophenyl)(methyl)amino)cyclohexyl)-6-(4-(4-(((S)-4-ethyl-4,9-dihydroxy-3,14-dioxo-3,4,12,14-tetrahydro-1H-pyrano[3′,4′:6,7]indolizino[1,2-b]quinolin-10-yl)methyl)-piperazine-1-carbonyl)piperidin-1-yl)pyridazine-3-carboxamide] as the compound, how does the pIC50 (LNCap cells) read?
Answer: Its pIC50 is 7.00 to 8.00.

Question: What about the IC50 (22Rv1 cells) of the same compound?
Answer: Its IC50 is 10 to 100 nM.

Question: And the IC50 (IEC6 cells)?
Answer: Its IC50 is > 1000 nM.

Question: What about the pIC50 [1] of the same compound?
Answer: The pIC50 was > 8.00.

Question: `CC[C@@]1(O)C(=O)OCc2c1cc1n(c2=O)Cc2cc3c(CN4CCN(CC5CCN(c6ccc(C(=O)N[C@H]7CC[C@H](N(C)c8ccc(C#N)c(Cl)c8)CC7)nn6)CC5)CC4)c(O)ccc3nc2-1` [Compound 28, N-((1r,4r)-4-((3-Chloro-4-cyanophenyl)(methyl)amino)cyclohexyl)-6-(4-((4-(((S)-4-ethyl-4,9-dihydroxy-3,14-dioxo-3,4,12,14-tetrahydro-1H-pyrano[3′,4′:6,7]indolizino[1,2-b]quinolin-10-yl)methyl)piperazin-1-yl)methyl)piperidin-1-yl)pyridazine-3-carboxamide] was tested. Which pIC50 (LNCap cells) did it give?
Answer: The pIC50 was 7.00 to 8.00.

Question: What about the IC50 (22Rv1 cells) of the same compound?
Answer: Its IC50 is 10 to 100 nM.

Question: And the pIC50 [1]?
Answer: The pIC50 was 7.00 to 8.00.

Question: With `CC[C@@]1(O)C(=O)OCc2c1cc1n(c2=O)Cc2cc3c(CN(C)C)c(OC(=O)N4CCN(C(=O)C5CCN(c6ccc(C(=O)N[C@H]7CC[C@H](N(C)c8ccc(C#N)c(Cl)c8)CC7)nn6)CC5)CC4)ccc3nc2-1` [Compound No. 11, (S)-10-((Dimethylamino)methyl)-4-ethyl-4-hydroxy-3,14-dioxo-3,4,12,14-tetrahydro-1H-pyrano[3′,4′:6,7]indolizino[1,2-b]quinolin-9-yl 4-(1-(6-(((1r,4r)-4-((3-chloro-4-cyanophenyl)(methyl)amino)-cyclohexyl)carbamoyl)pyridazin-3-yl)piperidine-4-carbonyl)piperazine-1-carboxylate] as the compound, how does the IC50 (LNCap cells) read?
Answer: The IC50 was 10 to 100 nM.

Question: What about the IC50 (22Rv1 cells) of the same compound?
Answer: The IC50 was 10 to 100 nM.

Question: And the IC50 (IEC6 cells)?
Answer: Its IC50 is 101 to 1000 nM.

Question: And the pIC50 [1]?
Answer: The pIC50 was > 8.00.

Question: `CC[C@@]1(O)C(=O)OCc2c1cc1n(c2=O)Cc2cc3c(CN(C)C(=O)C(C)(C)N(C)C(=O)CO[C@H]4CC[C@H]5[C@@H]6CC[C@H]7CC(=O)CC[C@]7(C)[C@H]6CC[C@]45C)c(O)ccc3nc2-1` [Compound 4, 2-(2-(((5S,8R,9S,10S,13S,14S,17S)-10,13-Dimethyl-3-oxohexadecahydro-1H-cyclopenta[a]phenanthren-17-yl)oxy)-N-methylacetamido)-N—(((S)-4-ethyl-4,9-dihydroxy-3,14-dioxo-3,4,12,14-tetrahydro-1H-pyrano[3′,4′:6,7]indolizino[1,2-b]quinolin-10-yl)methyl)-N,2-dimethylpropanamide] was tested. Which pIC50 (LNCap cells) did it give?
Answer: Its pIC50 is 6.00 to 7.00.

Question: And the IC50 (22Rv1 cells)?
Answer: Its IC50 is 101 to 1000 nM.
